3 h FOB score data for 25 substances are collected here from the OligoGym collection.

HELM strings list units from the 5' end as sugar, base in round brackets, then linkage (d deoxyribose, r ribose, m 2'-O-methyl, p phosphodiester). Strings are as the collection lists them; they lack the last nucleoside at the 3' end of the tested compound. [moe] = 2'-O-(2-methoxyethyl) (MOE); [sp] = phosphorothioate linkage; [m5C] = 5-methylcytosine

In this series the target is GFAP. As to the kind of experiment: mouse, dose not given. The conditions noted are these: ASO.
“RNA1{[moe]([m5C])[sp].[moe](A)p.[moe](G)p.[moe](T)p.[moe](A)p.d(T)[sp].d(T)[sp].d(A)[sp].d([m5C])[sp].d([m5C])[sp].d(T)[sp].d([m5C])[sp].d(T)[sp].d(A)[sp].d([m5C])[sp].[moe](T)p.[moe](A)p.[moe](G)[sp].[moe](T)}$$$$ (last 3' nucleoside missing)” had a 3 h FOB score of 0 score 0-7.
The substance “RNA1{[moe]([m5C])[sp].[moe](A)p.[moe](G)p.[moe](T)p.d(A)[sp].d(T)[sp].d(T)[sp].d(A)[sp].d([m5C])[sp].d([m5C])[sp].d(T)[sp].d([m5C])[sp].d(T)[sp].d(A)[sp].[moe]([m5C])p.[moe](T)p.[moe](A)p.[moe](G)[sp].[moe](T)}$$$$ (last 3' nucleoside missing)” registered a 3 h FOB score of 1 score 0-7.
Take “RNA1{[moe]([m5C])[sp].[moe](A)p.[moe](G)p.[moe]([m5C])p.[moe](A)[sp].d(G)[sp].d(T)[sp].d(G)[sp].d([m5C])[sp].d([m5C])[sp].d([m5C])[sp].d(T)[sp].d(G)[sp].d(A)[sp].d(A)[sp].[moe](G)p.[moe](A)p.[moe](T)[sp].[moe](T)}$$$$ (last 3' nucleoside missing)”: the 3 h FOB score was determined as 1 score 0-7.
Then “RNA1{[moe]([m5C])[sp].[moe](A)p.[moe](G)p.[moe]([m5C])p.[moe](A)[sp].d(T)[sp].d(T)[sp].d(T)[sp].d(G)[sp].d(T)[sp].d([m5C])[sp].d(T)[sp].d(T)[sp].[moe](T)p.[moe](A)p.[moe](T)[sp].[moe](T)}$$$$ (last 3' nucleoside missing)”, with 3 score 0-7; and “RNA1{[moe]([m5C])[sp].[moe](A)p.[moe](G)p.[moe]([m5C])p.[moe](A)[sp].d(T)[sp].d(T)[sp].d(T)[sp].d(G)[sp].d(T)[sp].d([m5C])[sp].d(T)[sp].d(T)[sp].d(T)[sp].d(A)[sp].[moe](T)p.[moe](T)p.[moe](T)[sp].[moe](T)}$$$$ (last 3' nucleoside missing)”, with 2 score 0-7; and “RNA1{[moe]([m5C])[sp].[moe](A)p.[moe](G)p.[moe]([m5C])p.[moe](A)p.[moe](T)p.d(T)[sp].d(T)[sp].d(G)[sp].d(T)[sp].d([m5C])[sp].d(T)[sp].d(T)[sp].d(T)[sp].d(A)[sp].d(T)[sp].[moe](T)p.[moe](T)[sp].[moe](T)}$$$$ (last 3' nucleoside missing)”, with 1 score 0-7.
Then “RNA1{[moe]([m5C])[sp].[moe](A)p.[moe](G)p.[moe]([m5C])p.[moe]([m5C])p.[moe](T)p.d(G)[sp].d(G)[sp].d(T)[sp].d(T)[sp].d(A)[sp].d(G)[sp].d([m5C])[sp].d([m5C])[sp].d(T)[sp].d(T)[sp].[moe](T)p.[moe]([m5C])[sp].[moe](T)}$$$$ (last 3' nucleoside missing)”, with 4 score 0-7.
Then “RNA1{[moe]([m5C])[sp].[moe](A)p.[moe](G)p.[moe]([m5C])p.[moe]([m5C])p.d(T)[sp].d(G)[sp].d(G)[sp].d(T)[sp].d(T)[sp].d(A)[sp].d(G)[sp].d([m5C])[sp].d([m5C])[sp].d(T)[sp].[moe](T)p.[moe](T)p.[moe]([m5C])[sp].[moe](T)}$$$$ (last 3' nucleoside missing)”, with 5 score 0-7; and “RNA1{[moe]([m5C])[sp].[moe](A)p.[moe](G)p.[moe]([m5C])p.d(A)[sp].d(T)[sp].d(T)[sp].d(T)[sp].d(G)[sp].d(T)[sp].d([m5C])[sp].d(T)[sp].d(T)[sp].d(T)[sp].[moe](A)p.[moe](T)p.[moe](T)p.[moe](T)[sp].[moe](T)}$$$$ (last 3' nucleoside missing)”, with 2 score 0-7; and “RNA1{[moe]([m5C])[sp].[moe](A)p.[moe](G)p.[moe]([m5C])p.d([m5C])[sp].d(T)[sp].d(G)[sp].d(G)[sp].d(T)[sp].d(T)[sp].d(A)[sp].d(G)[sp].d([m5C])[sp].d([m5C])[sp].[moe](T)p.[moe](T)p.[moe](T)p.[moe]([m5C])[sp].[moe](T)}$$$$ (last 3' nucleoside missing)”, with 4 score 0-7.
“RNA1{[moe]([m5C])[sp].[moe](A)p.[moe](T)p.[moe](G)p.[moe](G)[sp].d([m5C])[sp].d([m5C])[sp].d(T)[sp].d(G)[sp].d(G)[sp].d([m5C])[sp].d([m5C])[sp].d(T)[sp].d(T)[sp].d(G)[sp].[moe](A)p.[moe](G)p.[moe](A)[sp].[moe](A)}$$$$ (last 3' nucleoside missing)” yielded a 3 h FOB score of 1 score 0-7.
Then “RNA1{[moe]([m5C])[sp].[moe](A)p.[moe](T)p.[moe](T)p.[moe](T)[sp].d(G)[sp].d(T)[sp].d([m5C])[sp].d(T)[sp].d(T)[sp].d(T)[sp].d(A)[sp].d(T)[sp].[moe](T)p.[moe](T)p.[moe](T)[sp].[moe](T)}$$$$ (last 3' nucleoside missing)”, with 0 score 0-7.
Then “RNA1{[moe]([m5C])[sp].[moe](A)p.[moe](T)p.[moe](T)p.[moe](T)[sp].d(G)[sp].d(T)[sp].d([m5C])[sp].d(T)[sp].d(T)[sp].d(T)[sp].d(A)[sp].d(T)[sp].d(T)[sp].d(T)[sp].[moe](T)p.[moe](T)p.[moe]([m5C])[sp].[moe]([m5C])}$$$$ (last 3' nucleoside missing)”, with 0 score 0-7; and “RNA1{[moe]([m5C])[sp].[moe](A)p.[moe](T)p.[moe](T)p.[moe](T)p.[moe](G)p.d(T)[sp].d([m5C])[sp].d(T)[sp].d(T)[sp].d(T)[sp].d(A)[sp].d(T)[sp].d(T)[sp].d(T)[sp].d(T)[sp].[moe](T)p.[moe]([m5C])[sp].[moe]([m5C])}$$$$ (last 3' nucleoside missing)”, with 0 score 0-7; and “RNA1{[moe]([m5C])[sp].[moe](A)p.[moe](T)p.[moe](T)p.[moe]([m5C])[sp].d(A)[sp].d([m5C])[sp].d(T)[sp].d(A)[sp].d(A)[sp].d(T)[sp].d(A)[sp].d(T)[sp].[moe](T)p.[moe](T)p.[moe](A)[sp].[moe](A)}$$$$ (last 3' nucleoside missing)”, with 0 score 0-7.
Then “RNA1{[moe]([m5C])[sp].[moe](A)p.[moe](T)p.[moe](T)p.d(T)[sp].d(G)[sp].d(T)[sp].d([m5C])[sp].d(T)[sp].d(T)[sp].d(T)[sp].d(A)[sp].d(T)[sp].d(T)[sp].[moe](T)p.[moe](T)p.[moe](T)p.[moe]([m5C])[sp].[moe]([m5C])}$$$$ (last 3' nucleoside missing)”, with 0 score 0-7; and “RNA1{[moe]([m5C])[sp].[moe](A)p.[moe](T)p.[moe]([m5C])p.[moe](T)[sp].d(G)[sp].d([m5C])[sp].d(T)[sp].d(T)[sp].d([m5C])[sp].d([m5C])[sp].d(T)[sp].d(G)[sp].d(G)[sp].d(A)[sp].[moe](G)p.[moe](T)p.[moe](G)[sp].[moe](G)}$$$$ (last 3' nucleoside missing)”, with 1 score 0-7; and “RNA1{[moe]([m5C])[sp].[moe](A)p.[moe]([m5C])p.[moe](A)p.[moe](T)[sp].d(T)[sp].d([m5C])[sp].d(A)[sp].d([m5C])[sp].d(T)[sp].d(A)[sp].d(A)[sp].d(T)[sp].[moe](A)p.[moe](T)p.[moe](T)[sp].[moe](T)}$$$$ (last 3' nucleoside missing)”, with 0 score 0-7.
“RNA1{[moe]([m5C])[sp].[moe](A)p.[moe]([m5C])p.[moe](A)p.[moe](T)p.[moe](T)p.d([m5C])[sp].d(A)[sp].d([m5C])[sp].d(T)[sp].d(A)[sp].d(A)[sp].d(T)[sp].d(A)[sp].d(T)[sp].d(T)[sp].[moe](T)p.[moe](A)[sp].[moe](A)}$$$$ (last 3' nucleoside missing)” yielded a 3 h FOB score of 0 score 0-7.
Then “RNA1{[moe]([m5C])[sp].[moe](A)p.[moe]([m5C])p.[moe](A)p.[moe](T)p.d(T)[sp].d([m5C])[sp].d(A)[sp].d([m5C])[sp].d(T)[sp].d(A)[sp].d(A)[sp].d(T)[sp].d(A)[sp].d(T)[sp].[moe](T)p.[moe](T)p.[moe](A)[sp].[moe](A)}$$$$ (last 3' nucleoside missing)”, with 0 score 0-7; and “RNA1{[moe]([m5C])[sp].[moe](A)p.[moe]([m5C])p.[moe](A)p.d(T)[sp].d(T)[sp].d([m5C])[sp].d(A)[sp].d([m5C])[sp].d(T)[sp].d(A)[sp].d(A)[sp].d(T)[sp].d(A)[sp].[moe](T)p.[moe](T)p.[moe](T)p.[moe](A)[sp].[moe](A)}$$$$ (last 3' nucleoside missing)”, with 0 score 0-7; and “RNA1{[moe]([m5C])[sp].[moe](A)p.[moe]([m5C])p.[moe](G)p.[moe](T)p.[moe]([m5C])p.d(A)[sp].d([m5C])[sp].d(A)[sp].d(T)[sp].d(T)[sp].d([m5C])[sp].d(A)[sp].d([m5C])[sp].d(T)[sp].d(A)[sp].[moe](A)p.[moe](T)[sp].[moe](A)}$$$$ (last 3' nucleoside missing)”, with 0 score 0-7.
Then “RNA1{[moe]([m5C])[sp].[moe](A)p.[moe]([m5C])p.[moe](G)p.[moe](T)p.d([m5C])[sp].d(A)[sp].d([m5C])[sp].d(A)[sp].d(T)[sp].d(T)[sp].d([m5C])[sp].d(A)[sp].d([m5C])[sp].d(T)[sp].[moe](A)p.[moe](A)p.[moe](T)[sp].[moe](A)}$$$$ (last 3' nucleoside missing)”, with 0 score 0-7; and “RNA1{[moe]([m5C])[sp].[moe](A)p.[moe]([m5C])p.[moe](G)p.d(T)[sp].d([m5C])[sp].d(A)[sp].d([m5C])[sp].d(A)[sp].d(T)[sp].d(T)[sp].d([m5C])[sp].d(A)[sp].d([m5C])[sp].[moe](T)p.[moe](A)p.[moe](A)p.[moe](T)[sp].[moe](A)}$$$$ (last 3' nucleoside missing)”, with 0 score 0-7.
“RNA1{[moe]([m5C])[sp].[moe](G)p.[moe](G)p.[moe](A)p.[moe](T)[sp].d([m5C])[sp].d(T)[sp].d([m5C])[sp].d(T)[sp].d(T)[sp].d(T)[sp].d([m5C])[sp].d(A)[sp].d(G)[sp].d(G)[sp].[moe](G)p.[moe]([m5C])p.[moe](T)[sp].[moe](G)}$$$$ (last 3' nucleoside missing)” gave a 3 h FOB score of 5 score 0-7.
